From paper PMC5736559, “Dual blockade of the lipid kinase PIP4Ks and mitotic pathways leads to cancer-selective lethality” (Nature Communications, 2017)

How the values were obtained:
PIP4K2A = PIP4K2A (Homo sapiens, UniProt P48426); assay: ADP-Glo kinase assay with purified PIP4K2A and PI([…])P; format: biochemical
PIP4K2C = PIP4K2C (Homo sapiens, UniProt Q8TBX8); assay: MS-CETSA thermal shift in normal BJ cell lysate, […] compound; format: cell-based
Ferrochelatase = target: T1, Ferrochelatase (Homo sapiens, UniProt P22830); assay: MS-CETSA thermal shift in normal BJ cell lysate, […] compound (off-target hit); format: cell-based
T1 construct: gene FECH
T1 sequence (P22830 55-423): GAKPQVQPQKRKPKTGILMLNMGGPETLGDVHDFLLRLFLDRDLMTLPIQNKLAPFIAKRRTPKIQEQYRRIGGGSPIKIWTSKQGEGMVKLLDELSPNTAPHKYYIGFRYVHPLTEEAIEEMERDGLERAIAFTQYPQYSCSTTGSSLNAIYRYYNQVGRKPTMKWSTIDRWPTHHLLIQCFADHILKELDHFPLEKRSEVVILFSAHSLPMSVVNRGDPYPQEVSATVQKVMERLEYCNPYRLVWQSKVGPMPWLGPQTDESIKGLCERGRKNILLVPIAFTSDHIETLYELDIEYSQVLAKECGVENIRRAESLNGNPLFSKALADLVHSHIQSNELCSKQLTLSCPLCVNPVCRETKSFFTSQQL

IM95 = assay: cells; design: MTT cell viability/proliferation assay, absorbance 540 minus 660 nm, GI50 by non-linear regression; details: Homo sapiens, IM95; cancer cells, 72 h MTT
Procedure: (§1) Cells were plated in 96-well microplates on day 0, and a131 was added to each well on day 1 at a range of different concentrations (from 0.1 to 40 μM) in triplicate. After 3 days of culture, the number of viable cells was determined using MTT cell proliferation assays by adding thiazolyl blue tetrazolium bromide (MTT reagent, Invitrogen) at a concentration of 0.5 mg/ml to each well and incubating for 4 h at 37 °C. The medium was then removed, and the blue dye remaining in each well was dissolved in DMSO by mixing with a microplate mixer. The absorbance of each well was measured at 540 and 660 nm using a microplate reader (Benchmark plus, Bio-Rad). Optical density (OD) values were calculated by subtracting the absorbance at 660 nm from the absorbance at 540 nm. Mean OD values from control cells containing only DMSO-treated wells were set as 100% viable. […] Mean values with ± standard deviation (S.D.) are shown (n = 3). c, d Normal and transformed BJ cells were treated with a131 at 2.5 μM for 48 h. c FACS analysis using BrdU and PI double staining of the indicated cells. Percentages of BrdU-positive (S) population indicating cell cycle arrest and subG1 (<2N) population indicating cell death are shown. Representative FACS analysis shown (n = 3). d Immunoblot analysis of cleaved PARP and caspase-3 (Cas-3) indicating a131-induced apoptosis in transformed BJ cells (lanes 5, 6), but not normal counterparts (lanes 2, 3). Representative immunoblots shown (n = 3). e MTT assay of human normal and cancer cell lines treated with a131 for 72 h (n = 3). Mean concentration values for a131 to achieve 50% growth inhibition (GI50) in each cell line are plotted with ± S.D. f FACS analysis of a series of engineered BJ-derived fibroblasts treated with a131 at 5 µM for 48 h. Mean values of subG1 (<2N) population ± S.D. are shown (n > 3). g, h Normal and transformed BJ cells stably expressing GFP-histone H2B were treated with a131 at 2.5 μM for 32 h prior to fixation. g Immunofluorescence analysis with representative images (n = 3). h Quantification of cells (n > 100 per condition) with the indicated centrosome numbers. Mean values ± S.D. are shown (n = 3). i Mice bearing established tumor xenografts were treated orally (PO) or intraperitoneally (IP) twice daily with the indicated doses of a131 or its derivative b5. Tumor volumes were calculated periodically as indicated. Paclitaxel (PTX) was administered intravenously for twice every 4 days. Mean tumor volumes ± S.D. from six mice are shown. Two-way ANOVA was performed to determine statistical significance compared to vehicle control. j, k TUNEL staining (j) or immu

A549 = assay: cells; design: MTT cell viability/proliferation assay, absorbance 540 minus 660 nm, GI50 by non-linear regression; details: Homo sapiens, A549; cancer cells, 72 h MTT
Procedure: as §1

NCC59 = assay: cells; design: MTT cell viability/proliferation assay, absorbance 540 minus 660 nm, GI50 by non-linear regression; details: cancer cells, 72 h MTT
Procedure: as §1

SNU620 = assay: cells; design: MTT cell viability/proliferation assay, absorbance 540 minus 660 nm, GI50 by non-linear regression; details: SNU620; cancer cells, 72 h MTT
Procedure: as §1

NUGC3 = assay: cells; design: MTT cell viability/proliferation assay, absorbance 540 minus 660 nm, GI50 by non-linear regression; details: Homo sapiens, NUGC-3; cancer cells, 72 h MTT
Procedure: as §1

MCF7 = assay: cells; design: MTT cell viability/proliferation assay, absorbance 540 minus 660 nm, GI50 by non-linear regression; details: Homo sapiens, MCF7; cancer cells, 72 h MTT
Procedure: as §1

HT29 = assay: cells; design: MTT cell viability/proliferation assay, absorbance 540 minus 660 nm, GI50 by non-linear regression; details: Homo sapiens, HT-29; cancer cells, 72 h MTT
Procedure: as §1

HCT15 = assay: cells; design: MTT cell viability/proliferation assay, absorbance 540 minus 660 nm, GI50 by non-linear regression; details: Homo sapiens, HCT-15; cancer cells, 72 h MTT
Procedure: as §1

HCT116 = assay: cells; design: MTT cell viability/proliferation assay, absorbance 540 minus 660 nm, GI50 by non-linear regression; details: Homo sapiens, HCT-116; cancer cells, 72 h MTT
Procedure: as §1

SNU1750 = assay: cells; design: MTT cell viability/proliferation assay, absorbance 540 minus 660 nm, GI50 by non-linear regression; details: cancer cells, 72 h MTT
Procedure: as §1

SNU1 = assay: cells; design: MTT cell viability/proliferation assay, absorbance 540 minus 660 nm, GI50 by non-linear regression; details: Homo sapiens, SNU1; cancer cells, 72 h MTT
Procedure: as §1

SNU-16 = assay: cells; design: MTT cell viability/proliferation assay, absorbance 540 minus 660 nm, GI50 by non-linear regression; details: Homo sapiens, SNU-16; cancer cells, 72 h MTT
Procedure: as §1

HGC27 = assay: cells; design: MTT cell viability/proliferation assay, absorbance 540 minus 660 nm, GI50 by non-linear regression; details: Homo sapiens, HGC-27; cancer cells, 72 h MTT
Procedure: as §1

MDA-MB-231 = assay: cells; design: MTT cell viability/proliferation assay, absorbance 540 minus 660 nm, GI50 by non-linear regression; details: Homo sapiens, MDA-MB-231; cancer cells, 72 h MTT
Procedure: as §1

NCC24 = assay: cells; design: MTT cell viability/proliferation assay, absorbance 540 minus 660 nm, GI50 by non-linear regression; details: cancer cells, 72 h MTT
Procedure: as §1

HeLa = assay: cells; design: MTT cell viability/proliferation assay, absorbance 540 minus 660 nm, GI50 by non-linear regression; details: Homo sapiens, HeLa; cancer cells, 72 h MTT
Procedure: as §1

AGS = assay: cells; design: MTT cell viability/proliferation assay, absorbance 540 minus 660 nm, GI50 by non-linear regression; details: Homo sapiens, AGS; cancer cells, 72 h MTT
Procedure: as §1

SNU449 = assay: cells; design: MTT cell viability/proliferation assay, absorbance 540 minus 660 nm, GI50 by non-linear regression; details: Homo sapiens, SNU-449; cancer cells, 72 h MTT
Procedure: as §1

Huh7 = assay: cells; design: MTT cell viability/proliferation assay, absorbance 540 minus 660 nm, GI50 by non-linear regression; details: Homo sapiens, Huh-7; cancer cells, 72 h MTT
Procedure: as §1

Sequence of PIP4K2A (P48426 2-406): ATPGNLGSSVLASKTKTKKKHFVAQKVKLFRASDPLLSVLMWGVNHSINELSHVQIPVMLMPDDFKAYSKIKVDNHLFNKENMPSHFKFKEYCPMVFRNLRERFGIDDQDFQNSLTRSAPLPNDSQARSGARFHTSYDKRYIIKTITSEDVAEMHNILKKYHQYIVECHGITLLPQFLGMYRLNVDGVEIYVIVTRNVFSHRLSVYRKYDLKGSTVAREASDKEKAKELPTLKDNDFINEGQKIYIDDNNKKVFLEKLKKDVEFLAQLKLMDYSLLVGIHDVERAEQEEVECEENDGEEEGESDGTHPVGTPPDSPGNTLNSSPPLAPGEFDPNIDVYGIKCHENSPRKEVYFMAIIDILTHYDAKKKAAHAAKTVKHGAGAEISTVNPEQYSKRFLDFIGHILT
Sequence of PIP4K2C (Q8TBX8 2-421): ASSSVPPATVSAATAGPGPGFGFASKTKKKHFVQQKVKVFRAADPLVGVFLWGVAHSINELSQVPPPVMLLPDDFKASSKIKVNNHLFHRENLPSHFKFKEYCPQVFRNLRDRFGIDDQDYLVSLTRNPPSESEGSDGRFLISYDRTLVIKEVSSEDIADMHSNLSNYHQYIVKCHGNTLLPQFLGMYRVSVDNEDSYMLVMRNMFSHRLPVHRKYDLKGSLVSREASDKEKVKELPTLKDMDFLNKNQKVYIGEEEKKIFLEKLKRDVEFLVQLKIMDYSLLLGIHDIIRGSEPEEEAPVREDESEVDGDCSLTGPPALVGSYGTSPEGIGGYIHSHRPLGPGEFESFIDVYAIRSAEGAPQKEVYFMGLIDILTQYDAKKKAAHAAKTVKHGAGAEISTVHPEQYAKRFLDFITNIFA

Work on `COc1cc(/C=C(\C#N)C(=O)c2ccc(O)c(O)c2)cc(I)c1O` [I-OMe-AG-538] yielded an IC50 (PIP4K2A) of 2.1 µM.

`N#C/C(=C\c1cccc2cnccc12)c1c[nH]c2ccccc12` [a131] was tested, and the “MS-CETSA thermal shift in normal BJ cell lysate, 100 μM compound” value (PIP4K2C) was “two out of the three family members (PIP4K2A and 2C) in a131”, the “MS-CETSA thermal shift in normal BJ cell lysate, 100 μM compound (off-target hit)” value (Ferrochelatase) was “Ferrochelatase in a131 and coproporphyrinogen-III oxidase in a166 were identified as prominent hits” and the GI50 (IM95) was 1.04 µM. The GI50 (A549) was 1.97 µM, the GI50 (NCC59) was 0.944 µM and the GI50 (SNU620) was 0.982 µM. The GI50 (NUGC3) was 1.04 µM, the GI50 (MCF7) was 1.24 µM and the GI50 (HT29) was 0.915 µM. The GI50 (HCT15) was 0.545 µM, the GI50 (HCT116) was 1.84 µM and the GI50 (SNU1750) was 0.747 µM. It also gave a GI50 (SNU1) of 0.919 µM, a GI50 (SNU-16) of 0.982 µM and a GI50 (HGC27) of 1.17 µM. It also gave a GI50 (MDA-MB-231) of 1.14 µM, a GI50 (NCC24) of 1.23 µM and a GI50 (HeLa) of 1.44 µM. The GI50 (AGS) was 1.13 µM, the GI50 (SNU449) was 2.27 µM and the GI50 (Huh7) was 1.18 µM.
